≈ marks a conversion by molar mass, not a printed value. Where “and” joins values, the source holds several entries; their conditions need not be identical. Equal values may be shown once. Read-outs that look alike come from different tables or passages of the source.
What was measured:
[1] = ABTS radical cation scavenging assay; assay type: biochemical; conditions: mean ± SD, n = 3
Experimental: The ABTS radical cation (ABTS·+) was prepared by reacting ABTS with potassium persulfate following the method previously described. The ABTS radical cation (ABTS·+) was prepared by mixing with 2.45 mM potassium persulfate and equal volumes of an ABTS solution (7 mM), and then, they were permitted to react in the darkness at room temperature for 12–16 h. Thereafter, the ABTS reagent was diluted with methyl alcohol until reaching an absorbance of 0.70 ± 0.02 units at 734 nm. In a 96-well microplate, ABTS reagent (190 μL in each well) and samples (10 μL in each well) were incubated at room temperature for 20 min. To determine the antioxidant capacity by the ABTS method, the experimental conditions and protocol were identical to those of the DPPH assay. The only difference was that the absorbance was measured at 734 nm.

[2] = target: α-Glucosidase (from Baker's yeast); test: α-Glucosidase inhibitory assay (p-NPG substrate); conditions: read-out: IC50 α-Glucosidase inhibitory effect; mean ± SD, n = 3
Experimental: The extract, fractions, and compounds were dissolved in 5% DMSO and then diluted with phosphate buffer. Briefly, 80 μL PBS, 20 μL of varying concentrations of sample solutions, and 20 μL α-glucosidase solution (1.3 U/mL) were mixed and incubated in 96-well plates at 37°C for 5 min. The reaction started when 20 μL p-nitrophenyl-α-D-glucopyranoside (2.5 mM) was added to the plate. The reaction mixture was incubated for 15 min at 37°C, and then, 80 μL Na2CO3 (0.2 M) was added to stop the reaction.

[3] = DPPH free radical scavenging assay; assay type: biochemical; conditions: mean ± SD, n = 3
Experimental: The DPPH free radical scavenging assay was performed according to a previously reported method. A series of different concentrations of the tested samples and the positive control ascorbic acid were mixed with freshly prepared DPPH (0.2 mM) in a 96-well microplate with a total volume of 150 μL. After leaving the mixture to react in the dark for 30 min, its absorbance was determined at 517 nm. All of the wells with only samples were set as blanks to obtain an absorbance value, which was subtracted from the test sample readings. The percentage inhibition (%) for each sample was calculated by the following formula: (1) Inhibition %=Absblank−Abssamples/Absblank×100%, where Absblank and Abssamples correspond to the absorbance units (at 517 nm) of DPPH solutions incubated in the absence and presence of the tested samples.

PTP1B = target: T1, PTP1B (Homo sapiens, UniProt P18031); test: PTP1B inhibitory assay (p-NPP substrate)
T1 sequence (P18031 1-321 limits assumed): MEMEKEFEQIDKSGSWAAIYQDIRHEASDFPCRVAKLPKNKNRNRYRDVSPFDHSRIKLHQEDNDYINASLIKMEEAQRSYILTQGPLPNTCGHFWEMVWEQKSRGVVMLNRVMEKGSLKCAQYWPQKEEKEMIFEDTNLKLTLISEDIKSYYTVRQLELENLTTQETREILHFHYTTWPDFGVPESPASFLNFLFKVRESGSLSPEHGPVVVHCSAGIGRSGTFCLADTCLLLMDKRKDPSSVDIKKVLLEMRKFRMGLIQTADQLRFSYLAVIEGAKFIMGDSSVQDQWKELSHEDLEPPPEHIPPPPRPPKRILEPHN
Experimental: PTP1B (10 μg/mL stock solution) was dissolved in 10 mM citrate buffer (pH 6.0), 1 mM dithiothreitol (DTT), and 1 mM N, N, N′, N′-ethylenediaminetetraacetate (EDTA). 20.0 μL PTP1B stock solution and 60 μL citrate buffer were added to each well of a 96-well plastic plate.

[4] = test system: LPS-stimulated NO release in RAW 264.7 cells; test: Nitrite (Griess) assay of LPS-stimulated NO release; assay type: cell-based
Experimental: The level of NO production was tested by measuring the nitrite level in the culture medium with the Griess method. Cells were seeded at a density of 2 × 10^4 cells per well in 96-well plates. […] A microplate reader was employed for the optical density measurement at 570 nm.

[5] = Mus musculus, RAW264.7, LPS (1 μg/mL)-stimulated RAW 264.7 cells, mean ± SD, n = 3, read-out: IC50 NO production anti-inflammatory effect

IC50 [1] [µM]	IC50 [2] [µM]	IC50 [3] [µM]	IC50 (PTP1B; read-out: IC50 PTP1B inhibitory effect, mean ± SD, n = 3) [µM]	IC50 [4, 5]	IC50 ABTS scavenging activity ([1]; extract and fractions) [µg/mL]	IC50 DPPH scavenging activity ([3]; extract and fractions) [µg/mL]	IC50 (PTP1B) [µM]	Compound	IC50 ([4]; Mus musculus, RAW264.7, read-out: IC50 NO production anti-inflammatory effect) [µM]	IC50 ([4]; LPS (1 μg/mL)-stimulated RAW 264.7 cells, mean ± SD, n = 3, read-out: IC50 NO production anti-inflammatory effect) [µM]
33.4 ± 0.45	50.9 ± 1.78	66.67 ± 0.52	62.1 ± 0.73	47.4 ± 0.85 µM	–	–	–	COc1cc([C@@H](O)[C@H](CO)Oc2c(OC)cc([C@@H]3OC[C@@H]4[C@H]3CO[C@H]4c3ccc(O)c(OC)c3)cc2OC)ccc1O (single isomer, unassigned) [Compound 33]	–	–
50.9 ± 1.25	–	35.1 ± 1.02	–	–	8.96 ± 0.22 (≈ 50.9 µM)	6.18 ± 0.18 (≈ 35.1 µM)	–	O=C1O[C@H]([C@@H](O)CO)C(O)=C1O [Ascorbic acid, reference compound]	–	–
15 ± 0.11	62.5 ± 1.92	43.4 ± 0.46	–	–	–	–	39.25 ± 0.14	Oc1ccc([C@H]2Oc3cc(O)cc(O)c3C[C@H]2O)cc1 [Compound 2, (-)-epiafzelechin]	–	–
63.11 ± 0.24	> 100	78.76 ± 0.61	–	70.79 ± 0.67 µM	–	–	30.2 ± 0.45	COc1cc(O)c2c(=O)cc(-c3ccc(O)cc3)oc2c1 [Compound 7, genkwanin]	–	–
36.71 ± 0.33	> 100	21.8 ± 0.26	–	–	–	–	–	COc1cc(-c2oc3cc(O)cc(O)c3c(=O)c2O[C@@H]2O[C@H](CO)[C@@H](O)[C@H](O)[C@H]2O)ccc1O [Compound 11, isorhamnetin-3-O-β-D-glucoside]	–	–
24.6 ± 0.31	88.62 ± 0.49	87.78 ± 0.74	–	76.69 ± 0.51 µM	–	–	> 100	COc1cc(C2Oc3c(OC)cc(CCCO)cc3C2CO)ccc1O [Compound 13, (7S,8R)-dihydrodehydrodiconiferyl alcohol]	–	–
45.13 ± 0.41	62.2 ± 1.03	60.3 ± 0.16	–	70 ± 5.33 µM	–	–	> 100	COc1cc(C2Oc3c(OC)cc(CCCO)cc3C2CO)cc(OC)c1O [Compound 14, (7S,8R)-5-methoxydihydrodehydroconiferyl alcohol]	–	–
> 100	> 100	> 100	–	13.2 ± 0.36 µM	–	–	> 100	COc1cc(C2Oc3c(OC)cc(CCCO)cc3C2CO)ccc1OC(CO)CO [Compound 15, (7S,8R)-9,9′-dihydroxyl-3,3′-dimethoxyl-4-O-glycerol-7,8-dihydrobenzofuran-1′-propanolneoligan]	–	–
> 100	> 100	> 100	–	36.7 ± 0.8 µM	–	–	> 100	COc1cc(C2Oc3c(OC)cc(CCCO)cc3C2CO)ccc1OC1OC(CO)C(O)C(O)C1O [Compound 16, (7S,8R)-dihydrodehydrodiconiferyl alcohol-4-O-β-D-glucopyranoside]	–	–
33.49 ± 0.31	> 100	> 100	–	17.3 ± 0.6 µM	–	–	> 100	COc1cc(C2Oc3c(OC)cc(CCCOC4OC(CO)C(O)C(O)C4O)cc3C2CO)ccc1O [Compound 17, (7S,8R)-dihydrodehydrodiconiferyl alcohol-9′-O-β-D-glucoside]	–	–
54.67 ± 0.34	58.37 ± 0.44	> 100	–	43.6 ± 0.9 µM	–	–	95.63 ± 0.47	COc1cc([C@H](O)[C@H](CO)Oc2ccc(CCCO)cc2OC)ccc1O [Compound 19, threo-(7S,8S)-guaiacyl-glycerol-β-O-4′-dihydroconiferyl ether]	–	–
60.92 ± 0.46	52.6 ± 1.33	> 100	–	53.16 ± 0.24 µM	–	–	93.6 ± 1.07	COc1cc([C@@H](O)[C@H](CO)Oc2ccc(CCCO)cc2OC)ccc1O [Compound 20, erythro-(7R,8S)-guaiacyl-glycerol-β-O-4′-dihydroconiferyl ether]	–	–
93 ± 0.54	61.8 ± 0.76	> 100	–	55.54 ± 0.41 µM	–	–	67 ± 1.2	COc1cc(CCCO)ccc1O[C@@H](CO)[C@H](O)c1cc(OC)c(O)c(OC)c1 [Compound 21]	–	–
> 100	–	> 100	–	–	–	–	> 100	COc1cc([C@@H](O)[C@H](CO)Oc2c(OC)cc(CCCO)cc2OC)ccc1O[C@@H]1O[C@H](CO)[C@@H](O)[C@H](O)[C@H]1O [Compound 24, erythro-(7R,8S)-7,9,9-trihydroxy-3,3,5-trimethoxy-8-O-4-neolignan-4-O-β-D-glucopyranoside]	–	–
> 100	56.52 ± 0.45	> 100	–	–	–	–	–	COc1cc(CCCO)cc(OC)c1OC(CO)CO [Compound 26, 2-[4-(3-hydroxy-propyl)-2,6-dimethoxyphenoxy]-propane-1,3-diol]	–	–
41.98 ± 0.33	> 100	> 100	–	66.86 ± 0.51 µM	–	–	–	COc1cc([C@@H]2OC[C@H]3C(=O)OC[C@H]32)ccc1O [Compound 27, salicifoliol]	–	–
20.4 ± 0.23	> 100	> 100	–	14.8 ± 1.2 µM	–	–	–	COc1cc([C@@H]2OC(=O)[C@@H]3[C@H]2CO[C@H]3c2ccc(O)c(OC)c2)ccc1O [Compound 28, 4-ketopinoresinol]	–	–
23.7 ± 0.25	49.1 ± 1.1	65.4 ± 1.48	–	48.98 ± 0.39 µM	–	–	–	COc1cc([C@H]2OC[C@H]3[C@@H]2CO[C@@H]3c2cc(OC)c(O)c(OC)c2)cc(OC)c1O [Compound 31, (+)-syringaresinol]	–	–
88.32 ± 0.12	–	> 100	–	–	–	–	–	COc1cc(C(=O)O)ccc1O [Compound 37, vanillic acid]	–	–
76.06 ± 0.48	–	> 100	–	–	–	–	91.1 ± 0.38	COc1ccc(C(=O)O)cc1O [Compound 41, isovanillic acid]	–	–
83.21 ± 0.53	–	63.32 ± 0.41	–	–	–	–	63 ± 0.65	COC(=O)c1ccc(O)c(O)c1 [Compound 42, protocatechuic acid methyl ester]	–	–
> 100	–	> 100	–	30 ± 0.57 µM	–	–	24.75 ± 0.18	COc1cc(O)c2c(c1)C(=O)c1cc(C)cc(O)c1C2=O [Compound 45, physcion]	–	–
–	–	–	–	8.01 µg/mL and 22.4 µM	–	–	–	COc1ccc2c(c1)c(CC(=O)O)c(C)n2C(=O)c1ccc(Cl)cc1 [Indomethacin, reference compound]	–	–

Compound	IC50 [1] [µM]	IC50 [2] [µM]	IC50 [3] [µM]	IC50 (PTP1B; read-out: IC50 PTP1B inhibitory effect, mean ± SD, n = 3) [µM]	IC50 [4, 5]	IC50 ABTS scavenging activity ([1]; extract and fractions) [µg/mL]	IC50 DPPH scavenging activity ([3]; extract and fractions) [µg/mL]	IC50 (PTP1B) [µM]	IC50 ([4]; Mus musculus, RAW264.7, read-out: IC50 NO production anti-inflammatory effect) [µM]	IC50 ([4]; LPS (1 μg/mL)-stimulated RAW 264.7 cells, mean ± SD, n = 3, read-out: IC50 NO production anti-inflammatory effect) [µM]
Oc1cc(O)c2c(c1)O[C@H](c1ccc(O)c(O)c1)[C@@H](O)C2 [Compound 3, (+)-catechin]	11.29 ± 0.09	89 ± 1.95	26.4 ± 0.39	–	–	–	–	91.78 ± 0.68	–	–
Oc1cc(O)c2c(c1)O[C@H](c1ccc(O)c(O)c1)[C@H](O)C2 [Compound 4, (-)-epicatechin]	13.46 ± 0.09	24 ± 0.38	32 ± 0.37	–	–	–	–	38.66 ± 0.21	–	–
COc1cc(-c2cc(=O)c3c(O)cc(O)cc3o2)cc(OC)c1O [Compound 8, tricin]	24.1 ± 0.32	> 100	61.25 ± 0.31	–	–	–	–	> 100	–	–
O=c1cc(-c2ccc(O)cc2)oc2c([C@@H]3O[C@H](CO)[C@@H](O)[C@H](O)[C@H]3O)c(O)cc(O)c12 [Compound 9, vitexin]	85.04 ± 0.24	98.6 ± 1.2	92.26 ± 0.32	–	–	–	–	30.6 ± 0.48	–	–
COc1cc(-c2cc(=O)c3c(O)cc(O[C@@H]4O[C@H](CO)[C@@H](O)[C@H](O)[C@H]4O)cc3o2)cc(OC)c1O [Compound 10, tricin-7-O-β-D-glucoside]	91.1 ± 1.1	> 100	> 100	–	–	–	–	–	65.8 ± 1.47	–
C[C@@H]1O[C@@H](O[C@H]2C(=O)c3c(O)cc(O)cc3O[C@@H]2c2ccc(O)c(O)c2)[C@H](O)[C@H](O)[C@H]1O [Compound 12, astilbin]	43.1 ± 0.29	> 100	46.46 ± 0.4	–	–	–	–	> 100	–	–
O=C(O)c1ccc(O)c(O)c1 [Compound 38, protocatechuic acid]	63.25 ± 0.51	–	33.1 ± 0.79	–	–	–	–	44.75 ± 0.12	–	–
(+)-pinoresinol [Compound 29]	18.49 ± 0.09	52.1 ± 0.93	77.4 ± 2.98	–	–	–	–	–	–	69.94 ± 0.31

From paper PMC8545574, “Antioxidant, Anti-Inflammatory, and Antidiabetic Activities of Bioactive Compounds from the Fruits of Livistona chinensis Based on Network Pharmacology Prediction” (Oxidative Medicine and Cellular Longevity, 2021)
